Assays:
[1] = molecular target: T1, ACE (Mus musculus, UniProt P09470); test: In vitro ACE cleavage of synthetic peptides, MALDI-TOF MS; assay type: biochemical; conditions: 2 pmol/μL peptide, WT ACE or NKO ACE, 30 min, 37 °C
T1 sequence (P09470 35-1312): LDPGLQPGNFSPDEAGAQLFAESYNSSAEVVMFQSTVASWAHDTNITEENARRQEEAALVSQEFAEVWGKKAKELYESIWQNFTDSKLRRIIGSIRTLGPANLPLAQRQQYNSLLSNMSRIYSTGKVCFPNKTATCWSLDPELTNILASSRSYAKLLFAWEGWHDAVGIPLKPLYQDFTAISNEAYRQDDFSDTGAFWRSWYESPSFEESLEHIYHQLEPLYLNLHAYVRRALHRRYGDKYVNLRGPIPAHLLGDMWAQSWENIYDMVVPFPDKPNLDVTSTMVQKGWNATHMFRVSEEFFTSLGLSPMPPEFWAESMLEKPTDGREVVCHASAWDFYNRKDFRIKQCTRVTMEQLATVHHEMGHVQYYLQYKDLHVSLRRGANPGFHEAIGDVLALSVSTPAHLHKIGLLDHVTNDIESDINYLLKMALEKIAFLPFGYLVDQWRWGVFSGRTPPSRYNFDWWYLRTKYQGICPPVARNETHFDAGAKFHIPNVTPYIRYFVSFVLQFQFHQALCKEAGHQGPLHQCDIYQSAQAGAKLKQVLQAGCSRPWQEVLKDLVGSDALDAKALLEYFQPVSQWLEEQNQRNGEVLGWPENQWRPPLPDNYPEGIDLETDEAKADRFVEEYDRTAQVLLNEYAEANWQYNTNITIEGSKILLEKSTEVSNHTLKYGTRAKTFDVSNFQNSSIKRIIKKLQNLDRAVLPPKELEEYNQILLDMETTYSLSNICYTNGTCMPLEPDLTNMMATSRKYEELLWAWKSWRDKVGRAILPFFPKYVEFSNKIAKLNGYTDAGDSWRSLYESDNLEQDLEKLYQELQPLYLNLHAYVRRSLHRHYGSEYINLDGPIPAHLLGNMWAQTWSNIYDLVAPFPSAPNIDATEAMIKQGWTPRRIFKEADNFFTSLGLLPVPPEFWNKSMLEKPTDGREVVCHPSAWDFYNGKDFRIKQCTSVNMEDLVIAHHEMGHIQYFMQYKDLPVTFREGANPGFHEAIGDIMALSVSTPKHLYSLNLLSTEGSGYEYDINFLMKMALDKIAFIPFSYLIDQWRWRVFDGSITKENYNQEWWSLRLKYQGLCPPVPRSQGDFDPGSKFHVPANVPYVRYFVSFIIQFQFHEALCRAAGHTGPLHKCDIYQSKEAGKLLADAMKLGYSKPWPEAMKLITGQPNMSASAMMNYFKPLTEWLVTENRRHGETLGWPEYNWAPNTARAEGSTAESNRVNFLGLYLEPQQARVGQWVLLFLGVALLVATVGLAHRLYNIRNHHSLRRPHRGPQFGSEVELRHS

[2] = test system: WT ACE; test: 100 μL of HEPES buffer; conditions: mouse (ACE purified from mouse lung and kidney), 37 °C, up to 30 min

| cleavage products detectable by MALDI-MS [1] | not cleaved [2] | Substance |
| --- | --- | --- |
| not detectable | – | FPDGTKEMD [serine-protease inhibitor A3K (22–30)] |
| – | not further cleaved by ACE | FPRSPL |
| not detectable | – | FSSLMNLEEKPAPAA [apolipoprotein A-II (87–101)] |
| – | not further cleaved by ACE | WGTGSPRPG |

From publication PMC6693507 (Analytical chemistry, 2019)
